The source made the active and inactive calls. No cut-off for these calls is given here.
Columns and labels:
Musca domestica = assay: Insecticidal activity against Musca domestica in presence of piperonyl butoxide applied topically; type: functional, organism-based
Tribolium castaneum = assay: Insecticidal activity against Tribolium castaneum first instar larvae; type: functional, organism-based
Mus musculus = assay: Toxicity in ip dosed mouse; type: organism-based; details: in vivo
[1] = target: Ryanodine receptor 1 (Oryctolagus cuniculus) (UniProt P11716); assay: Displacement of [3H]ryanodine from Ca2+- ryanodine 1 receptor complex in rabbit skeletal muscle
Ryanodine receptor 1 (Oryctolagus cuniculus), sequence (P11716 whole entry): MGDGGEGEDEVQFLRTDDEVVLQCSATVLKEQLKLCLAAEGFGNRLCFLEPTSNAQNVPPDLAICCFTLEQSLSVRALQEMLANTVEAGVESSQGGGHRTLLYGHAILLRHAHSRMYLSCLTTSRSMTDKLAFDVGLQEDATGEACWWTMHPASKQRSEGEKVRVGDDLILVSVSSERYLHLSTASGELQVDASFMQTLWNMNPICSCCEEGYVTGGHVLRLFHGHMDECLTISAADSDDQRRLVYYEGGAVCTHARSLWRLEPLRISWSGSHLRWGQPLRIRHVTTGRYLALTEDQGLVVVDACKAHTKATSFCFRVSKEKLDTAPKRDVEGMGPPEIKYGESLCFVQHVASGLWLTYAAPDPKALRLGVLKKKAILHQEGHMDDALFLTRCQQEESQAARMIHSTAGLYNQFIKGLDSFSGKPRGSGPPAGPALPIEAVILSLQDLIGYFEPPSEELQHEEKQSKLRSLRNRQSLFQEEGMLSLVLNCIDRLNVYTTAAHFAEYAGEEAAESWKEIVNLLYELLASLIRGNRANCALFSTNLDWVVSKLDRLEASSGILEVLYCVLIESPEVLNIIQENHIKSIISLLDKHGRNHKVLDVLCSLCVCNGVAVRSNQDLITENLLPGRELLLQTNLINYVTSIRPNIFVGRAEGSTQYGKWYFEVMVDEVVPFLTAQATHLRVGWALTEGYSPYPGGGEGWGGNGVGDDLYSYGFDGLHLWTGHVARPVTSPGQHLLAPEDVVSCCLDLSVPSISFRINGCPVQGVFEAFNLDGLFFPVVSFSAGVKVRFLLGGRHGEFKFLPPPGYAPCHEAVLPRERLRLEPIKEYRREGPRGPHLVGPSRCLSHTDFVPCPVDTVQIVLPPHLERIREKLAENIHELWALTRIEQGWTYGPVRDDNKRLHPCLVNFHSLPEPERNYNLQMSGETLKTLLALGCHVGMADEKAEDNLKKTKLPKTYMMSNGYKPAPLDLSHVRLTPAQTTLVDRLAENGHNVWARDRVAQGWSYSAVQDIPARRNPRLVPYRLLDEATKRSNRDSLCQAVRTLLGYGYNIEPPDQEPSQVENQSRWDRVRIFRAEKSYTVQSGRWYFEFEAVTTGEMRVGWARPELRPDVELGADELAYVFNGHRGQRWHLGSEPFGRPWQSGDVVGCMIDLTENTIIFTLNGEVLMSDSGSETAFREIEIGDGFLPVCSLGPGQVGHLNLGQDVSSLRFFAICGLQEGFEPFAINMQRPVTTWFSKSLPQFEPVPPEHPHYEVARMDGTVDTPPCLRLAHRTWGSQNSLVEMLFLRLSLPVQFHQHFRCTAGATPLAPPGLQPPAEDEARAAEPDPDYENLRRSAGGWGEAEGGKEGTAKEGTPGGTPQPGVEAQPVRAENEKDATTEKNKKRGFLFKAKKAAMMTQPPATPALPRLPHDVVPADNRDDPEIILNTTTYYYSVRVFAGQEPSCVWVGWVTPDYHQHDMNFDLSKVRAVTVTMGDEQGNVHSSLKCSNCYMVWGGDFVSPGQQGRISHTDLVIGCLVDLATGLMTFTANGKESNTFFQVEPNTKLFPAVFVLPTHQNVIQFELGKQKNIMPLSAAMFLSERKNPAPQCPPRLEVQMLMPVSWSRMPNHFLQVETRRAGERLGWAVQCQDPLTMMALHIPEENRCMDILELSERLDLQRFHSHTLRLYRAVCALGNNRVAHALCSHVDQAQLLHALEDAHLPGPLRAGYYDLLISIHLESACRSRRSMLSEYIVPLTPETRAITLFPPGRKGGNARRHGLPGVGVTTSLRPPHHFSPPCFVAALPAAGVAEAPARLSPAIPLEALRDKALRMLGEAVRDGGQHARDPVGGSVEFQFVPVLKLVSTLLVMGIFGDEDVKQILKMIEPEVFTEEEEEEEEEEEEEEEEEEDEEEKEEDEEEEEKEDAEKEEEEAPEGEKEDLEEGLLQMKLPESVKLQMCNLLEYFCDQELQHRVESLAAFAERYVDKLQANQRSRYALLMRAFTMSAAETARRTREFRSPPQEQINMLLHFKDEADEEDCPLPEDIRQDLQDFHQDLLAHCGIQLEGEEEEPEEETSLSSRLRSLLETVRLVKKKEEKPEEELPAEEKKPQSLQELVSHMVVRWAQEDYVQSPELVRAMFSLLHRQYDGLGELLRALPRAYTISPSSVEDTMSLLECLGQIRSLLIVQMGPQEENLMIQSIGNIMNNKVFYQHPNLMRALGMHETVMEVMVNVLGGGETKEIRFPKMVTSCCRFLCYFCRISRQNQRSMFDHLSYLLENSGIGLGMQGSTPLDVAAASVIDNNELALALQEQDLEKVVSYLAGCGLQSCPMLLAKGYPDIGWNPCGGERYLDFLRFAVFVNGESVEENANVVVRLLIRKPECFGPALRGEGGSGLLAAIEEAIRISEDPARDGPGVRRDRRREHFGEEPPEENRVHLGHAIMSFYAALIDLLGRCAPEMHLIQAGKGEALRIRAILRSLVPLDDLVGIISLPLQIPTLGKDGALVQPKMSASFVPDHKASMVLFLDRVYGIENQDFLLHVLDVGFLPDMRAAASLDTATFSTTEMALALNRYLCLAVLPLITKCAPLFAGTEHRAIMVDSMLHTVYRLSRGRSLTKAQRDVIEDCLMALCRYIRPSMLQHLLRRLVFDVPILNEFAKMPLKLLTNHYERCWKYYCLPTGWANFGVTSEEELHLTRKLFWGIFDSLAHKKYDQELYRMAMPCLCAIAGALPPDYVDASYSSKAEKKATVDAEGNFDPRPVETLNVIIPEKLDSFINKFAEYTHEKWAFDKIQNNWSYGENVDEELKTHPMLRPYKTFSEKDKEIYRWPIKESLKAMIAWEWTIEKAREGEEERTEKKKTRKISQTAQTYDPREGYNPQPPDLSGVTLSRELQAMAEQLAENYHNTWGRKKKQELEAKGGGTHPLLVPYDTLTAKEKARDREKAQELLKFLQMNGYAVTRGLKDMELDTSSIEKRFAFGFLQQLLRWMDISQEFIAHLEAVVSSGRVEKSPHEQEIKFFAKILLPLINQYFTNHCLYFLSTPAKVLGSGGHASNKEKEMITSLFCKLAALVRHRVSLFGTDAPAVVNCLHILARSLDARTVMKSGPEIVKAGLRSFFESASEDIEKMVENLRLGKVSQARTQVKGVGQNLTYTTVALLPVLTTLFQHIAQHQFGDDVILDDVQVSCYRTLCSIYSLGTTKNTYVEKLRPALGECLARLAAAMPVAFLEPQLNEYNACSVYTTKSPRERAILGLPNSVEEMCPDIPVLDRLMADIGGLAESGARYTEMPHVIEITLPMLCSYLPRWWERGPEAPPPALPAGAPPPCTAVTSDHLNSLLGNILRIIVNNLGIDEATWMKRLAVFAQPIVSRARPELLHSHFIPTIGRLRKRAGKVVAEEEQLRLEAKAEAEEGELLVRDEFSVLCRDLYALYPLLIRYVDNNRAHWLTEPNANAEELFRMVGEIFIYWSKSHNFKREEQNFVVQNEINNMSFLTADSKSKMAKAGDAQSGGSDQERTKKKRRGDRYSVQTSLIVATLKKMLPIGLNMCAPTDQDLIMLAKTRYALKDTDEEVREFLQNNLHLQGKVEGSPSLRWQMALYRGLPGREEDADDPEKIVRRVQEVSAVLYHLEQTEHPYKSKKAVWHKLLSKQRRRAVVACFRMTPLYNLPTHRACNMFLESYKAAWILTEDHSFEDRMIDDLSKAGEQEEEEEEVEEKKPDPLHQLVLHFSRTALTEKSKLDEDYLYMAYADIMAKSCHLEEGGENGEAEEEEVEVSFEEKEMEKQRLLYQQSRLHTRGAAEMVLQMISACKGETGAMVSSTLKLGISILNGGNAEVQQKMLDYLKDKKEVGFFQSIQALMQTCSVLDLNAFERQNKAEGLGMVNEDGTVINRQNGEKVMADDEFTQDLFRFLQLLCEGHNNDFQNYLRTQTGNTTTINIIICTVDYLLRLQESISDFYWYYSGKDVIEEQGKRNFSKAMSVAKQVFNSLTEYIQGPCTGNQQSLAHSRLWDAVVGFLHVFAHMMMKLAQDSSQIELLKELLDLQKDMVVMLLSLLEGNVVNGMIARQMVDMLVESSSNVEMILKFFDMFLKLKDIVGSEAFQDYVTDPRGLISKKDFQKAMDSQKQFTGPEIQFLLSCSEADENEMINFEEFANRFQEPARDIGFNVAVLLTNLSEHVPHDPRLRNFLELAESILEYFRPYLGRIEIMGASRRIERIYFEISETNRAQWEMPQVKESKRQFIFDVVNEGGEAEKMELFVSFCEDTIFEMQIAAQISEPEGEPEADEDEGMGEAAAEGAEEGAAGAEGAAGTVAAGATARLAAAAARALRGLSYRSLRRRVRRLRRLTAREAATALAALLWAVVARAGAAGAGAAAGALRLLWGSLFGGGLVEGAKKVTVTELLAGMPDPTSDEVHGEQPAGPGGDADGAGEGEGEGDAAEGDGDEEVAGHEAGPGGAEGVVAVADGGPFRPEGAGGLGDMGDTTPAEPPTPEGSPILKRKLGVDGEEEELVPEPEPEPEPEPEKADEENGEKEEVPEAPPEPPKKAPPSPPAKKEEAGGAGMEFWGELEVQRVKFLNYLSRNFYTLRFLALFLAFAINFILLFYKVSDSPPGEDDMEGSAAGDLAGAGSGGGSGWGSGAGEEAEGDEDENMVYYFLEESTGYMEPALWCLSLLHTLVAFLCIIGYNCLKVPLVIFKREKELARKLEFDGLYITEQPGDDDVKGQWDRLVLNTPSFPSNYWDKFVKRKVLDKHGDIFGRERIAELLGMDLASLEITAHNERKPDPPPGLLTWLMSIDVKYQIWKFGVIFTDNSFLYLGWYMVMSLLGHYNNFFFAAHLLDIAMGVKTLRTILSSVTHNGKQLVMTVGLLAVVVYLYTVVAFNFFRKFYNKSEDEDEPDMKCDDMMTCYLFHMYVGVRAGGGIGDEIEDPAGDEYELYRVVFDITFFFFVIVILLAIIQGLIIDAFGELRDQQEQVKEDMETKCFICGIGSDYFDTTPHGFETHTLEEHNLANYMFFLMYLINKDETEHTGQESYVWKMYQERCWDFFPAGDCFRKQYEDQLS

| SMILES | Activity (Musca domestica) | Activity (Tribolium castaneum) | Activity (Mus musculus) | Activity [1] |
| --- | --- | --- | --- | --- |
| CC(C)[C@@]1(O)[C@@H](OC(=O)c2cc[nH]c2)[C@@]2(O)[C@]3(C)C[C@@]4(O)O[C@@]5([C@H](O)[C@@H](C)CC[C@]35O)[C@@]2(O)[C@@]41C | Active | Active | – | – |
| CC(C)[C@@]1(O)[C@@H](OC(=O)c2ccc[nH]2)[C@@]2(O)[C@@]3(C)C[C@]4(O)O[C@@]5([C@H](O)[C@@H](C)CC[C@]35O)[C@@]2(O)[C@@]14C [RYANODINE] | – | – | Active | – |
| CC(C)[C@@]1(O)[C@@H](OC(=O)c2cccnc2)[C@@]2(O)[C@]3(C)C[C@@]4(O)O[C@@]5([C@H](O)[C@@H](C)CC[C@]35O)[C@@]2(O)[C@@]41C | inactive | inactive | Not Active | inactive |
